What was measured:
NCI H552 = assay: Cell-based proliferation assay for determination of GI50 values, lung cancer cell line; settings: Homo sapiens; 96 h treatment, cyquant cell proliferation assay; read-out: Cellular activities GI50, NCI H552
Protocol: (§1) Cell-based Proliferation assay for determination of GI50 values
(§2) Three different cancer cell lines were obtained from ATCC: Human colon cancer cell line (Colo205), human breast cancer cell lines (MDA-MB435), and human lung cancer cell line (NCl-H522). Colo205 cells and NCl-H522 were cultivated in RPMI 1640 containing 2 mM
(§3) L-Glutamine, 5% FBS, 1.0 mM Na Pyruvate. MDA-MB435 cells were cultivated in DMEM containing 2 mM L-Glutamine, 5% FBS. Colo205 cells were seeded in 96-wells plate at 2000 and 5000 cells per well respectively. MDA-MB435 and NCl-H522 cells were seeded in 96-wells plate at 6000 cells per well. The plates were incubated at 37° C., 5% CO2, for 24 h. Cells were treated with compounds at various concentrations for 96 h. Cell growth was then monitored using cyquant cell proliferation assay (Invitrogen Pte Ltd). Dose response curves were plotted to determine GI50 values for the compounds using XL-fit (ID Business Solution, Emeryville, Calif.).

Colo205 = assay: Cell-based proliferation assay for determination of GI50 values, colon cancer cell line; settings: Homo sapiens, COLO 205; 96 h treatment, cyquant cell proliferation assay; read-out: Cellular activities GI50, Colo205
Protocol: as §1, §2, §3

HDAC1 enzyme (GST-HDAC1) = molecular target: T1, HDAC1 enzyme (GST-HDAC1) (Homo sapiens, UniProt Q13547); assay: In vitro HDAC assay for determination of IC50 values (BIOMOL fluorescent-based HDAC activity assay), HDAC1; type: biochemical; settings: 600 nM HDAC1 enzyme, 500 μM Flur de lys generic substrate, room temperature 2 h
T1 construct: Amplification of human HDAC1 and HDAC8 coding region from this cDNA library; made in house; host or cells: SF9 insect cells (baculovirus, pDEST20 vector)
T1 sequence (Q13547 whole entry): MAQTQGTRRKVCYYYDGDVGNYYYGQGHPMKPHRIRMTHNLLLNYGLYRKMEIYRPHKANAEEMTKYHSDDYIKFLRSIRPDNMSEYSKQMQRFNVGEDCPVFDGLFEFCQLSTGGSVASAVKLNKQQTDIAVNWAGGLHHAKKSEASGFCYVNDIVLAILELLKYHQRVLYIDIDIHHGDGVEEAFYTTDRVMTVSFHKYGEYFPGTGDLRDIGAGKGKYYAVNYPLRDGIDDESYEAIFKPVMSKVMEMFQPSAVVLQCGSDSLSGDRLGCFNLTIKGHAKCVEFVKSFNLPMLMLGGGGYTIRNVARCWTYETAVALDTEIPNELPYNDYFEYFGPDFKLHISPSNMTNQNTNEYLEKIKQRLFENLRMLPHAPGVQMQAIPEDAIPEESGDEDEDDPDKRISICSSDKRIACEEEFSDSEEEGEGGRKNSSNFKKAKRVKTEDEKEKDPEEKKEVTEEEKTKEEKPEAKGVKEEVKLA
Protocol: Recombinant GST-HDAC1 and GST-HDAC-8 Protein expression and purification
Human cDNA library was prepared using cultured SW620 cells. Amplification of human HDAC1 and HDAC8 coding region from this cDNA library was cloned separately into the baculovirus expression pDEST20 vector and pFASTBAC vector respectively (GATEWAY Cloning Technology, Invitrogen Pte Ltd). The pDEST20-HDAC1 and pFASTBAC-HTGST-HDAC8 constructs were confirmed by DNA sequencing. Recombinant baculovirus was prepared using the Bac-To-Bac method following the manufacturer's instruction (Invitrogen Pte Ltd). Baculovirus titer was determined by plaque assay to be about 10^8 PFU/ml.
Expression of GST-HDAC1 or HTGST-HDAC8 was done by infecting SF9 cells (Invitrogen Pte Ltd) with pDEST20-HDAC1 or pFASTBAC-GST-HDAC8 baculovirus at MOI=1 for 48 h. Soluble cell lysate was incubated with pre-equilibrated Glutathione Sepharose 4B beads (Amersham) at 4° C. for 2 h. The beads were washed with PBS buffer for 3 times. The GST-HDAC1 protein or GST-HDAC8 protein was eluted by elution buffer containing 50 mM Tris, pH8.0, 150 mM NaCl, 1% Triton X-100 and 10 mM or 20 mM reduced Glutathione. The purified GST-HDAC1 protein or purified GST-HDAC8 protein was dialyzed with HDAC storage buffer containing 10 mM Tris, pH7.5, 100 mM NaCl and 3 mM MgCl2. 20% Glycerol was added to purified GST-HDAC1 protein or purified GST-HDAC8 before storage at −80° C.
In vitro HDAC assay for determination of IC50 values
The assay has been carried out in 96 well format and the BIOMOL fluorescent-based HDAC activity assay has been applied. The reaction composed of assay buffer, containing 25 mM Tris pH 7.5, 137 mM NaCl, 2.7 mM KCl, 1 mM MgCl2, 1 mg/ml BSA, tested compounds, 500 nM HDAC8 enzyme or 600 nM HDAC1 enzyme, 200 μM Flur de lys p53 peptide substrate for HDAC8 enzyme or 500 μM Flur de lys generic substrate for HDAC1 enzyme and subsequently was incubated at room temperature for 2 h. Flur de lys Developer was added and the reaction was incubated for 10 min. Briefly, deacetylation of the substrate sensitizes it to the developer, which then generates a fluorophore The fluorophore is excited with 360 nm light and the emitted light (460 nm) is detected on a fluorometric plate reader (Tecan Ultra Microplate detection system, Tecan Group Ltd.).
The analytical software, Prism 3.0® (GraphPad Software Inc) has been used to generate IC50 from a series of data.

[1] = tested on: acetylated H3 in Colo205 cells; assay: Histone H3 acetylation assay (western-blot); type: cell-based, human; design: key: “Active” means accumulation of acetylated histone was observed when compared with control (without compound); settings: for Histone 3 acetylation: Colo205 cells, 0.1, 1, 5 and 10 μM, after 24 h
Protocol: Histone H3, H4 and H2A acetylation assay
A hallmark of histone deacetylase (HDAC) inhibition is the increase in the acetylation level of histones. Histone acetylation, including H3, H4 and H2A can be detected by immuno-blotting (western-blot). Colo205 cells, approximately 1.5×10^6 cells/10 cm dish, were seeded in the previously described medium, cultivated for 24 h and subsequently treated with HDAC inhibitory agents at 0.1, 1, 5 and 10 μM final concentration. […] The protein concentration was quantified using BCA method (Sigma Pte Ltd). The protein lysate was separated using 4-12% bis-tris SDS-PAGE gel (Invitrogen Pte Ltd) and was transferred onto PVDF membrane (BioRad Pte Ltd). The membrane was probed separately using primary antibody specific for acetylated H3, acetylated H4 or acetylated H2A (Upstate Pte Ltd). The detection antibody, goat anti rabbit antibody conjugated with horse radish peroxidase (HRP) was used according to the manufacturing instruction (Pierce Pte Ltd). After removing the detection antibody from the membrane, an enhanced chemiluminescent substrate for detection of HRP (Pierce Pte Ltd) was added onto the membrane. After removing the substrate, the membrane was exposed to an X-ray film (Kodak) for 1 sec-20 mins. The X-ray film was developed using the X-ray film processor. The density of each band observed on the developed film could be analysed using UVP Bioimaging software (UVP, Inc, Upland, Calif.). The values were then normalized against the density of actin in the corresponding samples to obtain the expression of the protein.

SMILES | GI50 (NCI H552) [nM] | GI50 (Colo205) [nM] | IC50 (HDAC1 enzyme (GST-HDAC1)) [nM] | Histone 3 acetylation (after 48 hrs) ([1]; Colo205 cells, after 48 hrs) | Histone 3 acetylation [1]
O=C(Cc1ccc(-c2csc(NC(=O)Cc3ccccc3)n2)s1)NO [Example 1, N-Hydroxy-2-[5-(2-phenylacetylamino-thiazol-4-yl)-thiophen-2-yl]-acetamide] | 2360 | 12100 | > 100000 | Active (after 48 hrs) | 
Nc1nc(-c2ccc(/C=C/C(=O)NO)cc2)cs1 [Example 23, 3-[4-(2-Amino-thiazol-4-yl)-phenyl]-N-hydroxy-acrylamide] | 13300 | 7720 | 510 |  | Active
O=C(NO)c1ccc(-c2ccc(CNCCc3ccccc3)cc2)s1 [Example 26, 5-[4-(Phenethylamino-methyl)-phenyl]-thiophene-2-carboxylic acid hydroxyamide] |  | 1860 | 66 |  | Active
O=C(NO)c1ccc(-c2ccc(CNCCc3ccccn3)cc2)s1 [Example 27] |  | 2390 | 200 |  | Active

Reference: patent US20070167499A1, “Biaryl linked hydroxamates: preparation and pharmaceutical applications” (A*BIO Pte Ltd., priority 2003, published 2007)
